In brackets after ≈: the same amount, converted by molar mass.
Tested on: up to 32 different microorganisms
Assay: in vitro antibacterial activity (MIC), agar dilution on Brain Heart Infusion (BHI) agar with Steers replicator
Format: cell-based
Settings: unit assumed
Outline: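 Twelve plates carried successive aqueous dilutions of test compound in BHI agar; inocula were 1:100 dilutions (1:10 for slow growers such as Micrococcus, Streptococcus), incubated 35°-37° C for 20 to 24 hours. MIC was the lowest concentration giving no growth, slight haze, or sparse isolated colonies versus growth control.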

[1] = Candida albicans CCH 442 (code TT)
[2] = Enterococcus faecism ATCC 8043 (code II)
[3] = Escherichia coli DC-2 (code SS)
[4] = Escherichia coli JUHL (code QQ)
[5] = Micrococcus luteus ATCC 4698 (code PP)
[6] = Micrococcus luteus ATCC 9341 (code OO)
[7] = Mycobacterium smegmatis ATCC 114 (code UU)
[8] = Nocardia Asteroides ATCC9970 (code VV)
[9] = Staphylococcus aureus 1775 (code GG)
[10] = Staphylococcus aureus A5177 (code BB)
[11] = Staphylococcus aureus A-5278 (code CC)
[12] = Staphylococcus aureus ATCC 6538P (code AA)
[13] = Staphylococcus aureus CMX 553 (code FF)
[14] = Staphylococcus aureus CMX 642A (code DD)
[15] = Staphylococcus aureus NCTC10649M (code EE)
[16] = Staphylococcus epidermidis 3519 (code HH)
[17] = Streptococcus agalactiae CMX 508 (code KK)
[18] = Streptococcus bovis A-5169 (code JJ)
[19] = Streptococcus pyogenes 930 (code MM)
[20] = Streptococcus pyogenes EES61 (code LL)
[21] = Streptococcus pyogenes PIU 2548 (code NN)

SMILES	MIC [1] [µg/mL]	MIC [2] [µg/mL]	MIC [3] [µg/mL]	MIC [4] [µg/mL]	MIC (Escherichia coli SS (code RR)) [µg/mL]	MIC [5] [µg/mL]	MIC [6] [µg/mL]	MIC [7] [µg/mL]	MIC [8] [µg/mL]	MIC [9] [µg/mL]	MIC [10] [µg/mL]	MIC [11] [µg/mL]	MIC [12] [µg/mL]	MIC [13] [µg/mL]	MIC [14] [µg/mL]	MIC [15] [µg/mL]	MIC [16] [µg/mL]	MIC [17] [µg/mL]	MIC [18] [µg/mL]	MIC [19] [µg/mL]	further results
CCC1OC(=O)C(C)C(=O)C(C)C(OC2OC(C)CC(N(C)C)C2O)C(C)(OCC=Cc2cccc([N+](=O)[O-])c2)CC(C)C(=O)C(C)C2NC(=O)OC12C (centres unmarked) [Example 193, R is —CH2CH═CH-(3-nitrophenyl)]	> 100	0.02 (≈ 0.0263 µM)	> 100	100 (≈ 132 µM)	0.2 (≈ 0.263 µM)	0.1 (≈ 0.132 µM)	0.01 (≈ 0.0132 µM)	0.39 (≈ 0.513 µM)	0.05 (≈ 0.0658 µM)	> 100	0.1 (≈ 0.132 µM)	> 100	0.05 (≈ 0.0658 µM)	0.1 (≈ 0.132 µM)	0.1 (≈ 0.132 µM)	0.1 (≈ 0.132 µM)	0.1 (≈ 0.132 µM)	0.01 (≈ 0.0132 µM)	0.01 (≈ 0.0132 µM)	25 (≈ 32.9 µM)	MIC [20]: ≤ 0.005 µg/mL; MIC [21]: 0.05 µg/mL (≈ 0.0658 µM)
CCC1OC(=O)C(C)C(=O)C(C)C(OC2OC(C)CC(N(C)C)C2OC(C)=O)C(C)(OCC=Cc2cnc3ccccc3c2)CC(C)C(=O)C(C)C2NC(=O)OC12C (centres unmarked) [Example 198, Compound of Formula (III): L is CO, T is NH, R^c is acetyl; R is —CH2CH═CH-(3-quinolyl)]	> 100	0.02	50	50	0.1	0.1	≤ 0.005	0.39	0.02	> 100	0.05	> 100	0.05	0.02	0.05	0.05	0.1	≤ 0.005	≤ 0.005	0.39	MIC [20]: ≤ 0.005 µg/mL; MIC [21]: 0.1 µg/mL
